Assay results: paper PMC5890784, “Total chemical synthesis of glycocin F and analogues: S-glycosylation confers improved antimicrobial activity” (Chemical Science, 2018)
Bridges are numbered along the chain shown (N, C = ends). The star is where a group is joined. βGlcNAc = CC(=O)N[C@@H]1[C@@H](O)[C@H](O)[C@@H](CO)O[C@H]1*

Tested on: Lactobacillus plantarum ATCC 8014
Format: cell-based
Details: for IC50: liquid culture in MRS broth, 96-well plate, triplicate, start OD 0.05, 30 °C, 12-15 h, absorbance 600 nm, error = maximum variance across triplicates
Protocol: To evaluate the antibacterial activity of synthetic glycocin F (1b), [^27D-His]-GccF (1a) and glyco-mutants 10 and 11, the IC50 values against Lactobacillus plantarum ATCC 8014 were measured using a liquid culture assay. Synthetic GccF (1b) was used as the positive control (Table 1).
The glycopeptides were assayed for activity against Lactobacillus plantarum strain 8014, using a 96-well plate reader. Serial dilutions of the compound to be tested were prepared in MRS broth (Merck) and was added, in triplicate, to a 96-well plate containing an equal volume of L. plantarum 8014 at optical density 0.05. Additional positive controls (cells with no treatment) and negative controls (MRS media with no cells) were included, also in triplicate. Cells were grown in a Multiskan GO plate reader (Thermo Scientific) for 12-15 h, at 30 °C, and absorbance measured at 600 nm every 15 min. The growth of cells in each peptide concentration was modelled against the internal positive control, and the percentage inhibition derived at each time point as the difference between the optical density of the positive control and the optical density of cells within a given peptide concentration. Taking the maximum point from plots of percentage inhibition versus time for each peptide concentration allowed a polynom ial fit to be applied, and the concentration required to reach 50% inhibition derived.
Statistical error was taken as the maximum variance across the triplicates of each concentration in a […]
Figure 44. Th e results from testin g the bacterially-isola ted GccF, synthetic GccF (1b) and analo gues 1a, 10, and 11, plott ed as perc entage in hibit ion of Lact oba cillus plantarum ATCC 8014 gro wth vs concentra tion of the […]
(1 picture or pasted object on this page, not shown here)

[1] = from IC50 values, relative to IC50 1.13 nM

Substance | IC50 | other results
H-KPAWCWYTLAMCGAGYDS(βGlcNAc)GTCDYMYSHCFGIKHHSSGSSSYHC(βGlcNAc)-OH (disulfide 5-28, 12-21) [Compound 1b, glycocin F] | 1.13 ± 0.2 nM | –
H-KPAWCWYTLAMCGAGYDC(βGlcNAc)GTCDYMYSHCFGIKHHSSGSSSYHC(βGlcNAc)-OH (disulfide 5-28, 12-21) [Compound 11] | – | increase in activity relative to the native glycopeptide (fold) [1]: approximately 2 fold
H-KPAWCWYTLAMCGAGYDS(βGlcNAc)GTCDYMYSHCFGIKHHSSGSSSYHC(βGlcNAc)-OH (disulfide 5-28, 12-21) [Native, glycocin F] | 2 ± 0.2 nM | –
H-KPAWCWYTLAMCGAGYDS(βGlcNAc)GTCDYMYSHCFGIKHHSSGSSSYHS(βGlcNAc)-OH (disulfide 5-28, 12-21) [Compound 10] | – | decrease in activity compared to native glycocin F (fold) [1]: approximately 10 fold
